According to ChEMBL document CHEMBL3885861, “Open TG-GATES”:

Species: Rattus norvegicus
Test: Open TG-GATES - Regimen: Daily Repeat
Format: toxicity, organism-based, Sprague-Dawley
Parameters: regimen Daily Repeat, gender Male, age 6 weeks
Conditions: in vivo, po, route gavage; for APTT / Bas / Eos / Fbg / Hb / Ht / Lym / MCH / MCHC / MCV / Mono / Neu / PT / Plat / RBC / Ret / WBC: tissue Blood; for KIDNEY_L / KIDNEY_R / KIDNEY_TOTAL: tissue Kidney; for LIVER: tissue Liver; for A/G / ALP / ALT / AST / BUN / CRE / Ca / Cl / DBIL / GLC / IP / K / LDH / Na / PL / RALB / TBIL / TC / TG / TP / gamma-GTP: tissue Plasma
[1] = 300 mg/kg, 72 h, dose level Middle, time 3 day
[2] = 300 mg/kg, […], dose level Middle, time 7 day
[3] = 300 mg/kg, […], dose level Middle, time 14 day
[4] = 300 mg/kg, […], dose level Middle, time 28 day
[5] = 1000 mg/kg, 72 h, dose level High, time 3 day
[6] = 1000 mg/kg, […], dose level High, time 7 day
[7] = 1000 mg/kg, […], dose level High, time 14 day
[8] = 1000 mg/kg, […], dose level High, time 28 day

CC(S)C(=O)NCC(=O)O (centres undefined) [TIOPRONIN]
TERMINAL_BW [1]: 224.5 g
APTT [1]: 22.4 s
Bas [1]: 0%
Eos [1]: 0.8%
Fbg [1]: 299 mg/dL
Hb [1]: 13.5 g/dL
Ht [1]: 40%
Lym [1]: 78.4%
MCH [1]: 21.1 pg
MCHC [1]: 33.6%
MCV [1]: 62.7 fL
Mono [1]: 2.4%
Neu [1]: 17.2%
PT [1]: 15.2 s
Plat [1]: 132 x10_4/uL
RBC [1]: 639.8 x10_4/ul
Ret [1]: 7.5%
WBC [1]: 96 x10_2/uL
KIDNEY_L [1]: 1 g
KIDNEY_R [1]: 1 g
KIDNEY_TOTAL [1]: 2 g
LIVER [1]: 10.7 g
A/G [1]: 1.2
ALP [1]: 1564.4 IU/L
ALT [1]: 42 IU/L
AST [1]: 75.2 IU/L
BUN [1]: 16 mg/dL
CRE [1]: 0.2 mg/dL
Ca [1]: 10.6 mg/dL
Cl [1]: 105.8 meq/L
DBIL [1]: 0 mg/dL
GLC [1]: 187.4 mg/dL
IP [1]: 7.3 mg/dL
K [1]: 4.4 meq/L
LDH [1]: 205.6 IU/L
Na [1]: 140.4 meq/L
PL [1]: 131.4 mg/dL
RALB [1]: 3 g/dL
TBIL [1]: 0.008 mg/dL
TC [1]: 73.4 mg/dL
TG [1]: 71.2 mg/dL
TP [1]: 5.5 g/dL
gamma-GTP [1]: 1.4 IU/L
TERMINAL_BW [2]: 258 g
TERMINAL_BW [3]: 313.9 g
TERMINAL_BW [4]: 381.6 g
APTT [2]: 22.2 s
Bas [2]: 0%
Eos [2]: 1.2%
Fbg [2]: 330.4 mg/dL
Hb [2]: 14 g/dL
Ht [2]: 40.4%
Lym [2]: 77.6%
MCH [2]: 21.7 pg
MCHC [2]: 34.9%
MCV [2]: 62.1 fL
Mono [2]: 2.4%
Neu [2]: 18%
PT [2]: 15.3 s
Plat [2]: 121.4 x10_4/uL
RBC [2]: 649.6 x10_4/ul
Ret [2]: 6.4%
WBC [2]: 101.8 x10_2/uL
APTT [3]: 23.7 s
Bas [3]: 0%
Eos [3]: 1%
Fbg [3]: 287.6 mg/dL
Hb [3]: 14 g/dL
Ht [3]: 41.2%
Lym [3]: 83%
MCH [3]: 20.3 pg
MCHC [3]: 33.9%
MCV [3]: 59.7 fL
Mono [3]: 2.2%
Neu [3]: 13.2%
PT [3]: 15.5 s
Plat [3]: 109.8 x10_4/uL
RBC [3]: 689.8 x10_4/ul
Ret [3]: 5%
WBC [3]: 142 x10_2/uL
APTT [4]: 24.6 s
Bas [4]: 0%
Eos [4]: 1%
Fbg [4]: 323.4 mg/dL
Hb [4]: 15.4 g/dL
Ht [4]: 43.3%
Lym [4]: 82.6%
MCH [4]: 20.1 pg
MCHC [4]: 35.5%
MCV [4]: 56.6 fL
Mono [4]: 2%
Neu [4]: 12.6%
PT [4]: 16.1 s
Plat [4]: 95.9 x10_4/uL
RBC [4]: 764.2 x10_4/ul
Ret [4]: 2.6%
WBC [4]: 146.8 x10_2/uL
KIDNEY_L [2]: 1.1 g
KIDNEY_R [2]: 1.1 g
KIDNEY_TOTAL [2]: 2.2 g
KIDNEY_L [3]: 1.2 g
KIDNEY_R [3]: 1.2 g
KIDNEY_TOTAL [3]: 2.5 g
KIDNEY_L [4]: 1.4 g
KIDNEY_R [4]: 1.4 g
KIDNEY_TOTAL [4]: 2.9 g
LIVER [2]: 12 g
LIVER [3]: 13.9 g
LIVER [4]: 16.5 g
A/G [2]: 1.1
ALP [2]: 1316.6 IU/L
ALT [2]: 36 IU/L
AST [2]: 63.4 IU/L
BUN [2]: 15.8 mg/dL
CRE [2]: 0.1 mg/dL
Ca [2]: 10.6 mg/dL
Cl [2]: 106.6 meq/L
DBIL [2]: 0 mg/dL
GLC [2]: 186.4 mg/dL
IP [2]: 7.3 mg/dL
K [2]: 4.3 meq/L
LDH [2]: 150.2 IU/L
Na [2]: 140.6 meq/L
PL [2]: 144.6 mg/dL
RALB [2]: 2.9 g/dL
TBIL [2]: 0 mg/dL
TC [2]: 70.6 mg/dL
TG [2]: 146.2 mg/dL
TP [2]: 5.5 g/dL
gamma-GTP [2]: 1.8 IU/L
A/G [3]: 1.3
ALP [3]: 1441.2 IU/L
ALT [3]: 43.8 IU/L
AST [3]: 65.8 IU/L
BUN [3]: 20.4 mg/dL
CRE [3]: 0.2 mg/dL
Ca [3]: 10.6 mg/dL
Cl [3]: 106.8 meq/L
DBIL [3]: 0 mg/dL
GLC [3]: 194.6 mg/dL
IP [3]: 6.5 mg/dL
K [3]: 4.4 meq/L
LDH [3]: 143.4 IU/L
Na [3]: 140.8 meq/L
PL [3]: 151.8 mg/dL
RALB [3]: 3.1 g/dL
TBIL [3]: 0.004 mg/dL
TC [3]: 70.8 mg/dL
TG [3]: 155 mg/dL
TP [3]: 5.6 g/dL
gamma-GTP [3]: 2.2 IU/L
A/G [4]: 1.2
ALP [4]: 1229.6 IU/L
ALT [4]: 42.6 IU/L
AST [4]: 64.6 IU/L
BUN [4]: 18.6 mg/dL
CRE [4]: 0.2 mg/dL
Ca [4]: 10.9 mg/dL
Cl [4]: 106 meq/L
DBIL [4]: 0 mg/dL
GLC [4]: 192.4 mg/dL
IP [4]: 6.5 mg/dL
K [4]: 4.1 meq/L
LDH [4]: 154.2 IU/L
Na [4]: 143 meq/L
PL [4]: 142 mg/dL
RALB [4]: 3.3 g/dL
TBIL [4]: 0.016 mg/dL
TC [4]: 72 mg/dL
TG [4]: 127.6 mg/dL
TP [4]: 6.1 g/dL
gamma-GTP [4]: 1.8 IU/L
TERMINAL_BW [5]: 223.7 g
APTT [5]: 23.7 s
Bas [5]: 0%
Eos [5]: 1.2%
Fbg [5]: 288 mg/dL
Hb [5]: 13 g/dL
Ht [5]: 39.2%
Lym [5]: 73.8%
MCH [5]: 20.8 pg
MCHC [5]: 33.2%
MCV [5]: 62.7 fL
Mono [5]: 3.6%
Neu [5]: 20.8%
PT [5]: 15.8 s
Plat [5]: 113.1 x10_4/uL
RBC [5]: 626.6 x10_4/ul
Ret [5]: 6.9%
WBC [5]: 105.8 x10_2/uL
KIDNEY_L [5]: 1 g
KIDNEY_R [5]: 1 g
KIDNEY_TOTAL [5]: 2 g
LIVER [5]: 10.7 g
A/G [5]: 1.3
ALP [5]: 1581.6 IU/L
ALT [5]: 49.2 IU/L
AST [5]: 77.2 IU/L
BUN [5]: 15.2 mg/dL
CRE [5]: 0.2 mg/dL
Ca [5]: 10.7 mg/dL
Cl [5]: 105.8 meq/L
DBIL [5]: 0.002 mg/dL
GLC [5]: 186.2 mg/dL
IP [5]: 7.8 mg/dL
K [5]: 4.4 meq/L
LDH [5]: 173.4 IU/L
Na [5]: 140.8 meq/L
PL [5]: 131 mg/dL
RALB [5]: 2.9 g/dL
TBIL [5]: 0.014 mg/dL
TC [5]: 68.6 mg/dL
TG [5]: 83.4 mg/dL
TP [5]: 5.2 g/dL
gamma-GTP [5]: 1.8 IU/L
TERMINAL_BW [6]: 254.3 g
TERMINAL_BW [7]: 296.9 g
TERMINAL_BW [8]: 364.7 g
APTT [6]: 21.9 s
Bas [6]: 0%
Eos [6]: 1%
Fbg [6]: 297 mg/dL
Hb [6]: 13.4 g/dL
Ht [6]: 39.6%
Lym [6]: 77%
MCH [6]: 21.4 pg
MCHC [6]: 33.8%
MCV [6]: 63.3 fL
Mono [6]: 2.6%
Neu [6]: 18.8%
PT [6]: 15.4 s
Plat [6]: 122.7 x10_4/uL
RBC [6]: 626 x10_4/ul
Ret [6]: 6.8%
WBC [6]: 115.2 x10_2/uL
APTT [7]: 24.7 s
Bas [7]: 0%
Eos [7]: 0.8%
Fbg [7]: 266.2 mg/dL
Hb [7]: 13.9 g/dL
Ht [7]: 41.1%
Lym [7]: 81.2%
MCH [7]: 20.8 pg
MCHC [7]: 33.7%
MCV [7]: 61.7 fL
Mono [7]: 2.4%
Neu [7]: 14.4%
PT [7]: 15.9 s
Plat [7]: 124 x10_4/uL
RBC [7]: 666.8 x10_4/ul
Ret [7]: 5.2%
WBC [7]: 129.5 x10_2/uL
APTT [8]: 24.2 s
Bas [8]: 0%
Eos [8]: 1.2%
Fbg [8]: 300.8 mg/dL
Hb [8]: 15 g/dL
Ht [8]: 42.6%
Lym [8]: 79%
MCH [8]: 19.2 pg
MCHC [8]: 35.3%
MCV [8]: 54.5 fL
Mono [8]: 1.8%
Neu [8]: 16.2%
PT [8]: 16.1 s
Plat [8]: 98.3 x10_4/uL
RBC [8]: 781.4 x10_4/ul
Ret [8]: 3.1%
WBC [8]: 124 x10_2/uL
KIDNEY_L [6]: 1.1 g
KIDNEY_R [6]: 1.2 g
KIDNEY_TOTAL [6]: 2.3 g
KIDNEY_L [7]: 1.3 g
KIDNEY_R [7]: 1.3 g
KIDNEY_TOTAL [7]: 2.6 g
KIDNEY_L [8]: 1.5 g
KIDNEY_R [8]: 1.5 g
KIDNEY_TOTAL [8]: 3 g
LIVER [6]: 12.3 g
LIVER [7]: 13.3 g
LIVER [8]: 15.3 g
A/G [6]: 1.2
ALP [6]: 1407 IU/L
ALT [6]: 45 IU/L
AST [6]: 67.8 IU/L
BUN [6]: 18.4 mg/dL
CRE [6]: 0.1 mg/dL
Ca [6]: 10.8 mg/dL
Cl [6]: 105.4 meq/L
DBIL [6]: 0 mg/dL
GLC [6]: 177.2 mg/dL
IP [6]: 7.9 mg/dL
K [6]: 4.6 meq/L
LDH [6]: 181.4 IU/L
Na [6]: 140 meq/L
PL [6]: 132.6 mg/dL
RALB [6]: 2.9 g/dL
TBIL [6]: 0.006 mg/dL
TC [6]: 67.8 mg/dL
TG [6]: 90.8 mg/dL
TP [6]: 5.2 g/dL
gamma-GTP [6]: 1.8 IU/L
A/G [7]: 1.3
ALP [7]: 1175.6 IU/L
ALT [7]: 41.6 IU/L
AST [7]: 70.4 IU/L
BUN [7]: 23 mg/dL
CRE [7]: 0.2 mg/dL
Ca [7]: 10.5 mg/dL
Cl [7]: 105 meq/L
DBIL [7]: 0 mg/dL
GLC [7]: 182.6 mg/dL
IP [7]: 7 mg/dL
K [7]: 4.4 meq/L
LDH [7]: 182.6 IU/L
Na [7]: 140.2 meq/L
PL [7]: 125.4 mg/dL
RALB [7]: 3.1 g/dL
TBIL [7]: 0.01 mg/dL
TC [7]: 60 mg/dL
TG [7]: 120.2 mg/dL
TP [7]: 5.6 g/dL
gamma-GTP [7]: 2 IU/L
A/G [8]: 1.2
ALP [8]: 1066 IU/L
ALT [8]: 49.2 IU/L
AST [8]: 71.4 IU/L
BUN [8]: 17 mg/dL
CRE [8]: 0.2 mg/dL
Ca [8]: 10.9 mg/dL
Cl [8]: 104.2 meq/L
DBIL [8]: 0 mg/dL
GLC [8]: 180 mg/dL
IP [8]: 7.5 mg/dL
K [8]: 4 meq/L
LDH [8]: 154.6 IU/L
Na [8]: 142.6 meq/L
PL [8]: 135 mg/dL
RALB [8]: 3.2 g/dL
TBIL [8]: 0.03 mg/dL
TC [8]: 63 mg/dL
TG [8]: 106.2 mg/dL
TP [8]: 5.8 g/dL
gamma-GTP [8]: 2 IU/L
